# Test results as given in PMC10023787, “Trio-pharmacophore DNA-encoded chemical library for simultaneous selection of fragments and linkers” (Nature Communications, 2023).
# Entries after “also recorded” stand apart in the source; their conditions may differ. Where two headings read alike, the source gives them in different places.
# Experiments:
# MMP-2 [1] = molecular target: T1, MMP-2 (Homo sapiens, UniProt P08253); assay: MMP-2 inhibition assay (fluorogenic peptide substrate); assay type: biochemical; settings: for remaining activity at 0.0156098 µM: fragment concentration 0.0156098 µM; for remaining activity at 0.0780488 µM: fragment concentration 0.0780488 µM; for remaining activity at 0.390244 µM: fragment concentration 0.390244 µM; for remaining activity at 1.95122 µM: fragment concentration 1.95122 µM; for remaining activity at 9.7561 µM: fragment concentration 9.7561 µM; for remaining activity at 48.7805 µM: fragment concentration 48.7805 µM; for remaining activity at 243.902 µM: fragment concentration 243.902 µM; for remaining activity at 0.0156 µM: concentration 0.0156 µM; for remaining activity at 0.39 µM: concentration 0.39 µM; for remaining activity at 1.95 µM: concentration 1.95 µM; for remaining activity at 9.76 µM: concentration 9.76 µM; for remaining activity at 48.78 µM: concentration 48.78 µM; for remaining activity at 243.9 µM: concentration 243.90 µM; for inhibitory effect: in words; for IC50: mean ± SE, n.d: not detected, Fig. 5d unit inferred, µM, read-out: IC50
# T1 construct: purchased Sino Biological 10082-HNAH
# T1 sequence (P08253 110-660): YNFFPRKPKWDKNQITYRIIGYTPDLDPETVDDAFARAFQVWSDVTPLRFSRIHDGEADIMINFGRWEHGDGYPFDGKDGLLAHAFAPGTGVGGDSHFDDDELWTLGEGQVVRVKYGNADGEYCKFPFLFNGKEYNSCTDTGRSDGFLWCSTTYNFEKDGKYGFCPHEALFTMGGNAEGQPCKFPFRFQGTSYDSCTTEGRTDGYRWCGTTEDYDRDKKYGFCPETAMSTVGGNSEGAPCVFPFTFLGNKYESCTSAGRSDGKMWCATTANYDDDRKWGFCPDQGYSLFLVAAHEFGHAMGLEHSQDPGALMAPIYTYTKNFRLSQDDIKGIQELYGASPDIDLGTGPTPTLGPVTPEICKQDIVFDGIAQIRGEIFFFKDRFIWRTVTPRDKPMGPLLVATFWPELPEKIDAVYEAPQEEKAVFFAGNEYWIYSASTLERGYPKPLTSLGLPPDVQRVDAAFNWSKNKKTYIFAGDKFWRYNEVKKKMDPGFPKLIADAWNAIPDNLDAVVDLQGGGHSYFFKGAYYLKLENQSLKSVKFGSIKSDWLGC
# Summary of the method: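 Human proMMP-2 and proMMP-9 were activated with 1 mM APMA for 2 h at 37 °C, then used at 6.5 nM (MMP-2) or 10 nM (MMP-9) final in Tris/NaCl/CaCl2/Brij 35 buffer, pH 7.5. After 30 min preincubation with compound at RT, 25 μM FRET peptide substrate was added and fluorescence (ex 280/em 360 nm) followed for 30 min. IC50 came from logistic fits of Vmax.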
# MMP-2 [2] = molecular target: T1, MMP-2; assay: De novo T-DEL selection against MMP-2, NGS decoding; assay type: binding; settings: for Enrichment Fold / Count: MMP2 selection; for Count: NGS sequence count per Compound ID (Figure 4a)
# Text: Matrix metalloproteinases (MMPs) are zinc-dependent endopeptidases capable of degrading and remodeling extracellular matrix components[46],[47]. They are attractive therapeutic targets as high expression levels were detected in various diseases, such as inflammatory diseases, and at different stages of cancers, including metastasis, invasion, and angiogenesis[47]–[53]. As shown in Supplementary Fig. 3c, we performed selections against the two gelatinases (human MMP-2 and human MMP-9) to identify binding fragments for later design and synthesis of small molecule inhibitors. After selection, the three sub-libraries were decoded, and the enrichment was calculated by dividing the post-selection fraction (count/total counts) by the pre-selection fraction (Fig. 4a and Supplementary Fig. 13).
# 4 µg of MMP-2/MMP-9 was dissolved in 100 µl of selection buffer containing 25 mM Tris-base, 10 mM CaCl2, 150 mM NaCl, 0.05% Tween 20, pH 7.5. 10 µl of 4-Aminophenylmercuric acetate (APMA) (100 mM) solution was added to the protein solution and incubated at 37 °C for 1 h. After activation, the solution was added on top of 40 µl pre-washed Ni-NTA resin and incubated for 30 min on a rotary shaker. The supernatant was discarded, and the resin was washed three times with the selection buffer.
# For each independent selection, three sub-libraries were mixed in the selection buffer with a final concentration of 40 nM of each sub-library in 100 µl. The mixture was heat denatured at 90 °C for 1 min and slowly cooled down to allow the formation of the trio-pharmacophore library. The dynamic dual-pharmacophore DEL was provided by DyNAbind GmbH (Merck, DYNA001).
# The assembled library was incubated with the protein-bound solid support for 2 h at RT on a rotary shaker. In parallel, selection on bare solid support served as the negative control to exclude promiscuous binders on the resin. After panning, the supernatant was discarded, and the resin was washed three times with 1 ml selection buffer. Finally, 100 µl of 50 mM Tris buffer, pH 7.4 was added to resuspend the resin and the resin was incubated at 95 °C for 5 min to denature the protein, release, and collect the bound library members.
# The eluted library members were subjected to sample preparation for NGS. NGS preparation was achieved by two-step PCR. First, the individual selection was indexed using primers containing unique sequences corresponding to each selection. The amplified product was purified from 2% agarose gel. Second, the purified DNA from all selections were pooled in equal amount and subjected to the 2nd PCR step to attach sequences compatible with the NGS flow cell and the sequencing primers. NGS was performed by Novogene UK with Novaseq 6000. Raw data files (fastq files) obtained were decoded using a custom python script and excel. The sequence reads corresponding to each sample was retrieved by searching for the correct index unique to each selection. Then, the code region was extracted from each sequence and assigned to the corresponding identity. The count of each code in each selection sample was obtained by looping through the total reads and counting the occurrence of each code. The enrichment fold of each compound was calculated by first, dividing the count by the total count to get the abundance, second, the abundance after the selection was divided by the abundance of pre-selection to reflect the distribution change of the compound. Next, the enrichment fold was plotted against the count for each member of the library to give the scatter plots as in Fig. 4.
# [3] = Figure 5a, read-out: Normalized activity (Mean)
# [4] = Figure 5a, fragment concentration 1219.51 µM, read-out: Normalized activity (Mean)
# [5] = MMP-2, read-out: Mean (dose-response, Supplementary fig 17)
# [6] = MMP-2, read-out: Mean (MMP-2 dose-response, Supplementary fig 15)
compound,measurement,setting,value
O=C(O)CNC(=O)NC12CC3CC(CC(C3)C1)C2 [Compound 66],remaining activity at 0.0156098 µM,MMP-2 [1]; [3],92.7%
same,remaining activity at 0.0780488 µM,MMP-2 [1]; [3],95.8%
same,remaining activity at 0.390244 µM,MMP-2 [1]; [3],93.9%
same,remaining activity at 1.95122 µM,MMP-2 [1]; [3],110%
same,remaining activity at 9.7561 µM,MMP-2 [1]; [3],93.7%
same,remaining activity at 48.7805 µM,MMP-2 [1]; [3],92.7%
same,remaining activity at 243.902 µM,MMP-2 [1]; [3],92.2%
same,remaining activity at 1219.51 µM,MMP-2 [1]; [4],85.5%
same,remaining activity at 0.0156 µM,MMP-2 [1]; [5],92.7%
same,remaining activity at 0.08 µM,"MMP-2 [1]; MMP-2, concentration 0.08 µM, read-out: Mean (dose-response, Supplementary fig 17)",95.8%
same,remaining activity at 0.39 µM,MMP-2 [1]; [5],93.9%
same,remaining activity at 1.95 µM,MMP-2 [1]; [5],110%
same,remaining activity at 9.76 µM,MMP-2 [1]; [5],93.7%
same,remaining activity at 48.78 µM,MMP-2 [1]; [5],92.7%
same,remaining activity at 243.9 µM,MMP-2 [1]; [5],92.2%
same,remaining activity at 1219.51 µM,"MMP-2 [1]; MMP-2, concentration 1219.51 µM, read-out: Mean (dose-response, Supplementary fig 17)",85.5%
same,inhibitory effect,MMP-2 [1],No inhibitory effects could be measured; also recorded: did not exhibit meaningful activity
same,Enrichment Fold,MMP-2 [2]; sub-library SL-A (Figure 4a),8.24
same,Count,MMP-2 [2]; sub-library SL-A,13510
same,Enrichment Fold,MMP-2 [2]; sub-library SL-C (Figure 4a),0.3913
same,Count,MMP-2 [2]; sub-library SL-C,81
O=C(O)Cn1cnc2c(oc3ccccc32)c1=O [Compound 182],remaining activity at 0.0152381 µM,"MMP-2 [1]; Figure 5a, fragment concentration 0.0152381 µM, read-out: Normalized activity (Mean)",97.3%
same,remaining activity at 0.0761905 µM,"MMP-2 [1]; Figure 5a, fragment concentration 0.0761905 µM, read-out: Normalized activity (Mean)",97.1%
same,remaining activity at 0.380952 µM,"MMP-2 [1]; Figure 5a, fragment concentration 0.380952 µM, read-out: Normalized activity (Mean)",98.7%
same,remaining activity at 1.90476 µM,"MMP-2 [1]; Figure 5a, fragment concentration 1.90476 µM, read-out: Normalized activity (Mean)",98.1%
same,remaining activity at 9.52381 µM,"MMP-2 [1]; Figure 5a, fragment concentration 9.52381 µM, read-out: Normalized activity (Mean)",87.4%
same,remaining activity at 47.619 µM,"MMP-2 [1]; Figure 5a, fragment concentration 47.619 µM, read-out: Normalized activity (Mean)",71.6%
same,remaining activity at 238.095 µM,"MMP-2 [1]; Figure 5a, fragment concentration 238.095 µM, read-out: Normalized activity (Mean)",16.9%
same,remaining activity at 1190.48 µM,"MMP-2 [1]; Figure 5a, fragment concentration 1190.48 µM, read-out: Normalized activity (Mean)",0%
same,remaining activity at 0.0152 µM,"MMP-2 [1]; MMP-2, concentration 0.0152 µM, read-out: Mean (MMP-2, Supplementary fig 16)",97.3%
same,remaining activity at 0.08 µM,"MMP-2 [1]; MMP-2, concentration 0.08 µM, read-out: Mean (MMP-2, Supplementary fig 16)",97.1%
same,remaining activity at 1.9 µM,"MMP-2 [1]; MMP-2, concentration 1.90 µM, read-out: Mean (MMP-2, Supplementary fig 16)",98.2%
same,remaining activity at 9.52 µM,"MMP-2 [1]; MMP-2, concentration 9.52 µM, read-out: Mean (MMP-2, Supplementary fig 16)",87.4%
same,remaining activity at 47.62 µM,"MMP-2 [1]; MMP-2, concentration 47.62 µM, read-out: Mean (MMP-2, Supplementary fig 16)",71.6%
same,remaining activity at 238.1 µM,"MMP-2 [1]; MMP-2, concentration 238.10 µM, read-out: Mean (MMP-2, Supplementary fig 16)",16.9%
same,remaining activity at 0.38 µM,"MMP-2 [1]; MMP-2, concentration 0.38 µM, read-out: Mean (MMP-2, Supplementary fig 16)",98.7%
same,IC50,MMP-2 [1],95.8 µM
same,MMP2 SL-A Count,"MMP-2 [2]; NGS sequence count per SL-A member, de novo T-DEL selection against MMP-2 (Figure 4a source data)",3616
same,MMP2 SL-C Count,"MMP-2 [2]; NGS sequence count per SL-C member, de novo T-DEL selection against MMP-2 (Figure 4a source data)",971
same,MMP2 SL-A Enrichment Fold,"MMP-2 [2]; enrichment fold per SL-A member, de novo T-DEL selection against MMP-2 (Figure 4a source data)",1.934
same,MMP2 SL-C Enrichment Fold,"MMP-2 [2]; enrichment fold per SL-C member, de novo T-DEL selection against MMP-2 (Figure 4a source data)",0.9721
Cc1cc(=O)[nH]c(-n2nc(C)c(CCC(=O)O)c2C)n1 [Compound 693],remaining activity at 0.0156098 µM,MMP-2 [1]; [3],93%
same,remaining activity at 0.0780488 µM,MMP-2 [1]; [3],96.4%
same,remaining activity at 0.390244 µM,MMP-2 [1]; [3],90.7%
same,remaining activity at 1.95122 µM,MMP-2 [1]; [3],92.4%
same,remaining activity at 9.7561 µM,MMP-2 [1]; [3],83.6%
same,remaining activity at 48.7805 µM,MMP-2 [1]; [3],70.5%
same,remaining activity at 243.902 µM,MMP-2 [1]; [3],41.9%
same,remaining activity at 1219.51 µM,MMP-2 [1]; [4],5.76%
same,remaining activity at 0.0156 µM,MMP-2 [1]; [6],93%
same,remaining activity at 0.08 µM,"MMP-2 [1]; MMP-2, concentration 0.08 µM, read-out: Mean (MMP-2 dose-response, Supplementary fig 15)",96.3%
same,remaining activity at 0.39 µM,MMP-2 [1]; [6],90.7%
same,remaining activity at 1.95 µM,MMP-2 [1]; [6],92.4%
same,remaining activity at 9.75 µM,"MMP-2 [1]; MMP-2, concentration 9.75 µM, read-out: Mean (MMP-2 dose-response, Supplementary fig 15)",83.6%
same,remaining activity at 9.76 µM,MMP-2 [1]; [6],83.6%
same,remaining activity at 48.76 µM,"MMP-2 [1]; MMP-2, concentration 48.76 µM, read-out: Mean (MMP-2 dose-response, Supplementary fig 15)",70.5%
same,remaining activity at 48.78 µM,MMP-2 [1]; [6],70.5%
same,remaining activity at 243.8 µM,"MMP-2 [1]; MMP-2, concentration 243.80 µM, read-out: Mean (MMP-2 dose-response, Supplementary fig 15)",41.9%
same,remaining activity at 243.9 µM,MMP-2 [1]; [6],41.9%
same,remaining activity at 1219.51 µM,"MMP-2 [1]; MMP-2, concentration 1219.51 µM, read-out: Mean (MMP-2 dose-response, Supplementary fig 15)",5.76%
same,inhibitory effect,MMP-2 [1],high µM range
same,IC50,MMP-2 [1],169 ± 15.8 µM
same,MMP2 SL-A Count,"MMP-2 [2]; NGS sequence count of sub-library SL-A building block, de novo T-DEL selection against MMP-2",3710
same,MMP2 SL-C Count,"MMP-2 [2]; NGS sequence count of sub-library SL-C building block, de novo T-DEL selection against MMP-2",1010
same,MMP2 SL-A Enrichment Fold,"MMP-2 [2]; sub-library SL-A building block, de novo T-DEL selection against MMP-2",2.312
same,MMP2 SL-C Enrichment Fold,"MMP-2 [2]; sub-library SL-C building block, de novo T-DEL selection against MMP-2",1.213
